Tests used:
[1] = AUC (last) in rat at 10 mg/kg, po measured up to 24 hrs by LC-MS/MS analysis; format: ADME, organism-based; design: dose 10 mg/kg, time 0 - last, route oral; details: in vivo
[2] = Ratio of dug level in liver to plasma of Wistar rat at 10 mg/kg, po measured at 4 hrs by LC-MS/MS analysis; format: ADME, organism-based
[3] = Cytotoxicity in human HepG2 cells assessed as inhibition of cell growth at 10 uM incubated for 72 hrs by CCK8 assay relative to control; format: cell-based; details: read-out: GI
[4] = AUC (last) in rat at 100 mg/kg, po measured up to 24 hrs by LC-MS/MS analysis; format: ADME, organism-based; design: dose 100 mg/kg, time 0 - last, route oral; details: in vivo
[5] = Half life in beagle dog at 1 mg/kg, iv measured up to 24 hrs by LC-MS/MS analysis; format: ADME, organism-based, Canis lupus familiaris; details: in vivo
[6] = AUC (last) in rat at 30 mg/kg, po measured up to 24 hrs by LC-MS/MS analysis; format: ADME, organism-based; design: dose 30 mg/kg, time 0 - last, route oral; details: in vivo
[7] = Volume of distribution at steady state in rat at 1 mg/kg, iv measured up to 24 hrs by LC-MS/MS analysis; format: ADME, organism-based; details: in vivo, read-out: Vdss
[8] = Half life in rat at 1 mg/kg, iv measured up to 24 hrs by LC-MS/MS analysis; format: ADME, organism-based; details: in vivo
CYP3A4 = CYP3A4 (Homo sapiens, UniProt P08684); assay: Inhibition of CYP3A4 in pooled human liver microsomes at 10 uM pre-incubated for 5 mins before NADPH addition and measured after 10 mins by UPLC-MS/MS analysis relative to control; format: ADME
Chain of CYP3A4 (P08684 whole entry): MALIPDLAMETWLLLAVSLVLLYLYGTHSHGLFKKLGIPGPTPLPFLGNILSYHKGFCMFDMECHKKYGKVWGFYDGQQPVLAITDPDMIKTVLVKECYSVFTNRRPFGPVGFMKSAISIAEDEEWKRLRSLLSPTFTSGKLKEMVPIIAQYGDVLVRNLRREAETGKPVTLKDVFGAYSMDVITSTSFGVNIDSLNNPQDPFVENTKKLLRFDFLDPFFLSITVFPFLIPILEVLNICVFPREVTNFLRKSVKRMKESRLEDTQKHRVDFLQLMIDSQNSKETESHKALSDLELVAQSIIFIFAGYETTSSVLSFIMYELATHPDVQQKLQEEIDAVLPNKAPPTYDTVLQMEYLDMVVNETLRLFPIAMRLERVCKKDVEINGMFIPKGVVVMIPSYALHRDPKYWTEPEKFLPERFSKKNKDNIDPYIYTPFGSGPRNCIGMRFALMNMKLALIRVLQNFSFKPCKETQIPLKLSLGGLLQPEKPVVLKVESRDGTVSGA

[9] = Protein binding in human plasma; format: ADME, cell-free; details: read-out: PPB
[10] = Tmax in rat at 10 mg/kg, po measured up to 24 hrs by LC-MS/MS analysis; format: ADME, organism-based; details: in vivo
[11] = Drug metabolism in rat liver microsomes assessed as metabolic rate at 1 uM preincubated for 5 mins before NADPH addition and measured up to 30 mins by LC-MS/MS analysis; format: ADME, Microsome; details: 0.5 h
[12] = Drug metabolism in human liver microsomes assessed as metabolic rate at 1 uM preincubated for 5 mins before NADPH addition and measured up to 30 mins by LC-MS/MS analysis; format: ADME, Microsome; details: 0.5 h
[13] = Oral bioavailability in rat at 10 mg/kg measured up to 24 hrs by LC-MS/MS analysis; format: ADME, organism-based; details: in vivo
[14] = Clearance in rat at 1 mg/kg, iv measured up to 24 hrs by LC-MS/MS analysis; format: ADME, organism-based; details: in vivo
[15] = Drug level in plasma of Wistar rat at 10 mg/kg, po measured at 4 hrs by LC-MS/MS analysis; format: ADME, organism-based
[16] = Volume of distribution at steady state in beagle dog at 1 mg/kg, iv measured up to 24 hrs by LC-MS/MS analysis; format: ADME, organism-based, Canis lupus familiaris; details: in vivo, read-out: Vdss
[17] = Cytotoxicity in human HEK293 cells assessed as inhibition of cell growth at 3 uM incubated for 72 hrs by CCK8 assay relative to control; format: cell-based; details: read-out: GI
[18] = Cytotoxicity in human HepG2 cells assessed as inhibition of cell growth at 3 uM incubated for 72 hrs by CCK8 assay relative to control; format: cell-based; details: read-out: GI
[19] = Cmax in rat at 30 mg/kg, po measured up to 24 hrs by LC-MS/MS analysis; format: ADME, organism-based; design: dose 30 mg/kg, route oral; details: in vivo
CYP2C9 = CYP2C9 (Homo sapiens, UniProt P11712); assay: Inhibition of CYP2C9 in pooled human liver microsomes at 10 uM pre-incubated for 5 mins before NADPH addition and measured after 10 mins by UPLC-MS/MS analysis relative to control; format: ADME
Chain of CYP2C9 (P11712 whole entry): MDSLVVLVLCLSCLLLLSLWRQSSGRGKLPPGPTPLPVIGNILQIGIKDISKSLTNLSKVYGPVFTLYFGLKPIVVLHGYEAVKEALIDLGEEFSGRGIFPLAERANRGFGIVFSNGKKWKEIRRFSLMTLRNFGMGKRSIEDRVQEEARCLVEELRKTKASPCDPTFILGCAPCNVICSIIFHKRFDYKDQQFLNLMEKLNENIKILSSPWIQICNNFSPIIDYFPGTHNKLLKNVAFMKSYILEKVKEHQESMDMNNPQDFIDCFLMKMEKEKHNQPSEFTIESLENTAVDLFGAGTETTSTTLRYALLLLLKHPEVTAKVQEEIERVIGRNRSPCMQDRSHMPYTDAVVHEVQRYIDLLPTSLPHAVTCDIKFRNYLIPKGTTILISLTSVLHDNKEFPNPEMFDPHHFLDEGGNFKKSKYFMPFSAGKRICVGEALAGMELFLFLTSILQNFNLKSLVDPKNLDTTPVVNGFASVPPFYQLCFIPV

[20] = Cytotoxicity in human HuH7 cells assessed as inhibition of cell growth at 3 uM incubated for 72 hrs by CCK8 assay relative to control; format: cell-based, Huh-7; details: read-out: GI
[21] = Protein binding in rat plasma; format: ADME, cell-free; details: read-out: PPB
[22] = Cmax in rat at 100 mg/kg, po measured up to 24 hrs by LC-MS/MS analysis; format: ADME, organism-based; design: dose 100 mg/kg, route oral; details: in vivo
[23] = Oral bioavailability in beagle dog at 10 mg/kg measured up to 24 hrs by LC-MS/MS analysis; format: ADME, organism-based, Canis lupus familiaris; details: in vivo
[24] = Cmax in rat at 10 mg/kg, po measured up to 24 hrs by LC-MS/MS analysis; format: ADME, organism-based; design: dose 10 mg/kg, route oral; details: in vivo
[25] = Tmax in rat at 100 mg/kg, po measured up to 24 hrs by LC-MS/MS analysis; format: ADME, organism-based; details: in vivo
[26] = Drug level in liver of Wistar rat at 10 mg/kg, po measured at 4 hrs by LC-MS/MS analysis; format: ADME, organism-based; details: read-out: Drug uptake
[27] = Cmax in beagle dog at 10 mg/kg, po measured up to 24 hrs by LC-MS/MS analysis; format: ADME, organism-based, Canis lupus familiaris; design: dose 10 mg/kg, route oral; details: in vivo
[28] = Toxicity in beagle dog assessed as induction of emesis at 10 mg/kg measured up to 24 hrs; format: organism-based, Canis lupus familiaris; details: in vivo
[29] = AUC(last) in beagle dog at 1 mg/kg, iv measured up to 24 hrs by LC-MS/MS analysis; format: ADME, organism-based, Canis lupus familiaris; design: dose 1 mg/kg, route intravenous, time 0 - last; details: in vivo
[30] = Drug level in liver of Wistar rat at 10 mg/kg, po measured up to 8 hrs by LC-MS/MS analysis; format: ADME, organism-based; details: in vivo
[31] = AUC (last) in beagle dog at 10 mg/kg, po measured up to 24 hrs by LC-MS/MS analysis; format: ADME, organism-based, Canis lupus familiaris; design: dose 10 mg/kg, time 0 - last, route oral; details: in vivo
[32] = Clearance in beagle dog at 1 mg/kg, iv measured up to 24 hrs by LC-MS/MS analysis; format: ADME, organism-based, Canis lupus familiaris; details: in vivo
[33] = Cytotoxicity in human HEK293 cells assessed as inhibition of cell growth at 10 uM incubated for 72 hrs by CCK8 assay relative to control; format: cell-based; details: read-out: GI
[34] = Tmax in rat at 30 mg/kg, po measured up to 24 hrs by LC-MS/MS analysis; format: ADME, organism-based; details: in vivo
CYP2D6 = CYP2D6 (Homo sapiens, UniProt P10635); assay: Inhibition of CYP2D6 in pooled human liver microsomes at 10 uM pre-incubated for 5 mins before NADPH addition and measured after 10 mins by UPLC-MS/MS analysis relative to control; format: ADME
Chain of CYP2D6 (P10635 whole entry): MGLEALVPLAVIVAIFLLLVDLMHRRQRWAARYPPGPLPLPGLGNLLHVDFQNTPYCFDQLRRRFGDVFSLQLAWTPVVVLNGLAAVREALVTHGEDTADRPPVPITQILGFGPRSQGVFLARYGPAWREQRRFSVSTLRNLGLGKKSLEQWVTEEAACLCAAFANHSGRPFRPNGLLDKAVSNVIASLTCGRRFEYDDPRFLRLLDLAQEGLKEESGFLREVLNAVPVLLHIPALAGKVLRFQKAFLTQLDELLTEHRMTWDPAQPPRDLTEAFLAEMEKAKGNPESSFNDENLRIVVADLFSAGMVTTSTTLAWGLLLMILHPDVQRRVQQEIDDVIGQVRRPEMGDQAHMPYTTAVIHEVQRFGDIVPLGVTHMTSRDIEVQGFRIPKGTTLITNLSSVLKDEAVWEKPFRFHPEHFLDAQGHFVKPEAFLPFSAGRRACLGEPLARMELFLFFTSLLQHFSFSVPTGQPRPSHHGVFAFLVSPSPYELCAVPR

[35] = AUC(last) in rat at 1 mg/kg, iv measured up to 24 hrs by LC-MS/MS analysis; format: ADME, organism-based; design: dose 1 mg/kg, route intravenous, time 0 - last; details: in vivo

## COC(=O)N[C@H](C(=O)N1CCC[C@H]1c1ncc(-c2ccc3c(c2)CCc2cc(-c4cnc([C@@H]5CCCN5C(=O)[C@@H](NC(=O)OC)C(C)C)[nH]4)sc2-3)[nH]1)C(C)C
[1]
  AUC(0-t) at 24 h: 6 to 24 µM·h
[2]
  Kp at 4 h: 6
[3]
  inhibition at 72 h, 10 µM: 6%
[4]
  AUC(0-t) at 24 h: 468 µM·h
[5]
  half-life: 4 h
[6]
  AUC(0-t) at 24 h: 77 µM·h
[7]
  Vd: 1.1 L/kg
[8]
  half-life: 1.5 h
CYP3A4
  inhibition at 10 min, 10 µM: 56%
[9]
  fraction unbound: < 0.01
[10]
  Tmax: 0.25 to 2 h
[11]
  Drug metabolism: 0.01 nmol/min/mg
[12]
  Drug metabolism: 0.01 nmol/min/mg
[13]
  bioavailability: 30%
[14]
  clearance: 10 mL/min/kg
[15]
  concentration at 4 h: 1.25 µM
[16]
  Vd: 1 L/kg
[17]
  inhibition at 72 h, 3 µM: 2%
[18]
  inhibition at 72 h, 3 µM: 0%
[19]
  Cmax: 14 µM
CYP2C9
  inhibition at 10 min, 10 µM: 35%
[20]
  inhibition at 72 h, 3 µM: 2%
[21]
  fraction unbound: < 0.01
[22]
  Cmax: 43 µM
[23]
  bioavailability: 37 to 100%
[24]
  Cmax: 1.6 to 6 µM
[25]
  Tmax: 2 to 4 h
[26]
  concentration at 4 h: 7.4 µM
[27]
  Cmax: 6 µM
[28]
  Activity: Toxic
[29]
  AUC(0-t) at 24 h: 4 µM·h
[30]
  Drug uptake: Active
[31]
  AUC(0-t) at 24 h: 11 to 93 µM·h
[32]
  clearance: 5 mL/min/kg
[33]
  inhibition at 72 h, 10 µM: 28%
[34]
  Tmax: 1 to 4 h
CYP2D6
  inhibition at 10 min, 10 µM: 36%
[35]
  AUC(0-t) at 24 h: 2 µM·h
